Assay results: patent US11220524B2, “Selective inhibitors of protein arginine methyltransferase 5 (PRMT5)” (PRELUDE THERAPEUTICS, INCORPORATED, priority 2017, dated 2022)
Values after ≈ are worked out from the molar mass of the structure shown. Counter-ions that a name gives are not always drawn. Like-named read-outs stand apart in the source and are kept apart here.

How the values were obtained:
PRMT5/MEP50 complex = PRMT5/MEP50 complex (Homo sapiens (Human), UniProt O14744); experiment: Biochemical assay: PRMT5/MEP50 methylation of histone H2A with 3H-SAM, filter plate scintillation
Summary of the method: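 5 nM PRMT5/MEP50 preincubated with compound 15–20 min at room temperature, with 5 μM histone H2A as substrate; reaction started with 1 μM 3H-SAM and run 60 min at 30 °C. TCA-stopped, filter-captured methylation counted by scintillation; IC50 from 4-parameter Hill fit.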

[1] = test system: Symmetric Di-Methyl Arginine (sDMA) in Granta-519 cells; experiment: Western blot for symmetric di-methyl arginine (sDMA) marks in Granta cells, 3 days treatment; format: cell-based; conditions: Homo sapiens, 3 days
Procedure: Cell Treatment and Western Blotting for Detecting Symmetric Di-Methyl Arginine (sDMA) and Histone H3R8 Dimethyl Symmetric (H3R8me2s) Marks
Initial compounds screening in A549 cells: Compounds were dissolved in DMSO to make 10 mM stock and further diluted to 0.1, and 1 mM. A549 cells were maintained in PRMI 1640 (Corning Cellgro, Catalog #: 10-040-CV) medium supplemented with 10% v/v FBS (GE Healthcare, Catalog #: SH30910.03). One day before experiment, 1.25×10^5 cells were seeded in 6 well plate in 3 mL medium and incubated overnight. The next day, medium was changed and 3 uL of compound solution was added (1:1,000 dilution, 0.1 and 1 uM final concentration; DMSO concentration: 0.1%), and incubated for 3 days. Cells incubated with DMSO was used as a vehicle control. Cells were washed once with PBS, trypsinized in 150 uL 0.25% Trypsin (Corning, Catalog #: 25-053-CI), neutralized with 1 mL complete medium, transferred to microcentrifuge tubes and collected. Cell pellet was then resuspended in 15 uL PBS, lysed in 4% SDS, and homogenized by passing through homogenizer column (Omega Biotek, Catalog #: HCR003). Total protein concentrations were determined by BCA assay (ThermoFisher Scientific, Catalog #: 23225). Lysates were mixed with 5× Laemmli buffer and boiled for 5 min. Forty ug of total protein was separated on SDS-PAGE gels (Bio-Rad, catalog #: 4568083, 4568043), transferred to PVDF membrane, blocked with 5% dry milk (Bio-Rad, Catalog #: 1706404) in TBS with 0.1% v/v Tween 20 (TBST) for 1 hour at room temperature (RT), and incubated with primary antibodies (sDMA: Cell signaling, Catalog #: 13222, 1:3,000; H3R8me2s: Epigentek, Catalog #: A-3706-100, 1:2,000; β-Actin: Abcam, Catalog #: ab8227, 1:10,000) in 5% dry milk in TBST at 4° C. for overnight. The next day, membranes were washed with TBST, 5×5 min, and incubated withhP conjugated seconded antibody (GE Healthcare; Catalog #: NA934-1ML; 1:5,000) for 2 hours at RT, followed by 5×5 min washes with TBST, and incubation with ECL substrates (Bio-Rad, Catalog #: 1705061, 1705062). Chemiluminescent signal was captured with FluoChem HD2 imager (Proteinsimple) and analyzed by ImageJ.
Cells incubated with DMSO was used as a vehicle control. Cells were harvested and subjected to western blot analysis as described above. SmD3me2s and H3R8me2s bands were quantified by ImageJ. Signals were normalized to β-Actin and DMSO control. IC50 values were calculated using Graphpad Prism.

Granta-519 cells = experiment: Cell proliferation assay on Granta-519 cells (CCK-8, day 10); format: cell-based; conditions: Homo sapiens
Procedure: Cell Proliferation Assay to Determine IC50 on Granta-519 Cells
Granta-519 cells were maintained in PRMI 1640 (Corning Cellgro, Catalog #: 10-040-CV) medium supplemented with 10% v/v FBS (GE Healthcare, Catalog #: SH30910.03). Compounds were dissolved in DMSO to make 10 mM stocks and stored at −20° C. Nine-point, 3-fold serial dilutions were made with DMSO with top concentration at 1 mM (working stocks).
On day of experiment, compound working stocks were further diluted at 1:50 with fresh medium in 96 well plate, and 10 μL of diluted drugs were added to a new 96 well plate for proliferation assay. Cells growing at exponential phase were spun down at 1500 rpm for 4 min and resuspend in fresh medium to reach a density of 0.5×10^6 cells/ml. 200 ul of cells were added to 96 well plate containing diluted drugs and incubated for 3 days. DMSO was used a vehicle control.
One day 3, 10 μL of Cell Counting Kit-8 (CCK-8, Jojindo, CK04-13) solution was added to a new 96 well plate. Cells incubated with drugs for 3 days were resuspended by pipetting up and down, and 100 μL of cells were transferred to 96 well plate containing CCK-8 reagent to measure viable cells. Plates were incubated in C02 incubator for 2 hours and OD450 values were measured with a microplate reader (iMark microplate reader, Bio-Rad).
For re-plating, compound working stocks were diluted at 1:50 with fresh medium and 10 μL of diluted drugs were added to anew 96 well plate. Cells from Day 3plate (50 ul) were added to 96 well plate containing fresh drug and additional 150 of fresh medium was added to reach 200 ul volume. Plate was returned to CO2incubator and incubated for 3more days. Viable cells measurement and re-plating were repeated on day 6, and the final viable cells measurement was taken on day 10.
Percentage of viable cells, relative to DMSO vehicle control, were calculated and plotted in Graphpad Prism ([Inhibitor] vs. normalized response-Variable slope) to determine proliferation IC50 values on day 10.

physchem = experiment: physchem
Procedure: Compounds were first dispersed in freshly prepared FaSSIF (http://biorelevant.com/site_media/upload/documents/How_to_make_FaSSIF_FeSSIF_and_FaSSGF.pdf) buffer in 1 mg/mL respectively, and the standard samples were prepared by preparing 1 mg/mL of test compounds in DMSO. The compounds were then sufficient mixed by vortex mixer for 30 sec, and agitated at 25° C. using 300 rpm form 4 hour in thermo mixer. After incubation, the prepared samples were centrifuged at 10000 rpm for 10 min to remove the undissolved solid, the resulting supernatants were applied to HPLC. The actual concentrations of the compounds were evaluated by measuring the peak area, and the solubility (S) of compounds was calculated according to following equation: S=Csmp=Cstd*(Asmp/Astd)*(Vstd/Vsmp) Where C is the sample concentration in μg/mL, A is the peak area, and V is the injection volume.

[2] = 240 h, Granta-519 cell line, read-out: Proliferation IC50
[3] = biochemical potency, read-out: PRTMT5/MEP50 IC50
[4] = Granta-519, 72 h, Granta cell line
[5] = histone H2A 5 μM, SAM 1 μM, enzyme 5 nM, read-out: PRMT5/MEP50 IC50

Sequence of PRMT5/MEP50 complex (O14744 whole entry): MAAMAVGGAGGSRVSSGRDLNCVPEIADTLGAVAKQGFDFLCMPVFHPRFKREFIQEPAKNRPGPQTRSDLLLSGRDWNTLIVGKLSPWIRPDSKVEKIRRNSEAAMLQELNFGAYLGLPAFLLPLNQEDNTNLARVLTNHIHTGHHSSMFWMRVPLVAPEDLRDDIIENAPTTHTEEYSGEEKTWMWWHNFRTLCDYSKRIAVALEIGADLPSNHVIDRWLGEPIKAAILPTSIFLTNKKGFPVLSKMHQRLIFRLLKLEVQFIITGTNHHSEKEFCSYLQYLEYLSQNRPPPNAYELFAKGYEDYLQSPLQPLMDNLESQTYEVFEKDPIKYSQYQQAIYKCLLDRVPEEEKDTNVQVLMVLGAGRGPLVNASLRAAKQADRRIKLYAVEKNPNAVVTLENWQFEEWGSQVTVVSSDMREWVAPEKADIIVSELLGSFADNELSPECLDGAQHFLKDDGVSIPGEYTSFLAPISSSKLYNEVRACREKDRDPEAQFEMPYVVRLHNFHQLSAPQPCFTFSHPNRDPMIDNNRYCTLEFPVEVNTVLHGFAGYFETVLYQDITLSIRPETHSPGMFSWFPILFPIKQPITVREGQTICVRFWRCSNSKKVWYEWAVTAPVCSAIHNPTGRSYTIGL
Sequence of PRMT5/MEP50 complex (Q9BQA1 whole entry partner): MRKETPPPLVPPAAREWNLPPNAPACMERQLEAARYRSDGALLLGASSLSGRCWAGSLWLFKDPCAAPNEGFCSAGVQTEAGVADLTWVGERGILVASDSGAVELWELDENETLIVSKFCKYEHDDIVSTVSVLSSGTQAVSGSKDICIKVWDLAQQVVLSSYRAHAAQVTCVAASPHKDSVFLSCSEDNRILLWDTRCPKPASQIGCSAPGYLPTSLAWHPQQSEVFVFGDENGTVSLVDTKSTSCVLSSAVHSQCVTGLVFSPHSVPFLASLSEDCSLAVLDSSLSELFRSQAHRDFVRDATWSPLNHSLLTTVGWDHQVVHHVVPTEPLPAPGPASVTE

| SMILES | IC50 ([1]; 72 h, Granta-519 cell line) | IC50 (PRMT5/MEP50 complex; [5]) | IC50 (Granta-519 cells; [2]) | further results |
| --- | --- | --- | --- | --- |
| C[C@@](O)(c1ccc(Cl)c(Cl)c1)[C@H]1O[C@@H](n2cnc3/c(=N/O)nc[nH]c32)[C@H](O)[C@@H]1O [Example 108, 9-((2R,3R,4S,5S)-5-((R)-1-(3,4-dichlorophenyl)-1-hydroxyethyl)-3,4-dihydroxytetrahydrofuran-2-yl)-3,9-dihydro-6H-purin-6-one oxime] | 0.131 µM | – | 0.415 µM | IC50 (PRMT5/MEP50 complex): 0.0096 µM |
| CO/N=c1\nc[nH]c2c1ccn2[C@@H]1C[C@H](CCc2ccc3ccc(NCC4CC4)nc3c2)[C@@H](O)[C@H]1O [Example 90-B, 7-((1R,2S,3R,4S)-4-(2-(2-((cyclopropylmethyl)amino)quinolin-7-yl)ethyl)-2,3-dihydroxycyclopentyl)-1,7-dihydro-4H-pyrrolo[2,3-d]pyrimidin-4-one O-methyl oxime] | – | – | – | IC50 (PRMT5/MEP50 complex; [3]): 0.00082 µM; IC50 [1, 4]: 0.028 µM; IC50 (Granta-519 cells; Granta-519, 240 h, Granta cell line, read-out: Prolif. IC50): 0.229 µM |
| O[C@@H]1[C@H](O)[C@@H]([C@H](O)c2ccc(Cl)c(Cl)c2)O[C@H]1n1ccc2/c(=N/OCC(F)(F)F)nc[nH]c21 [Example 103, 7-((2R,3R,4S,5R)-5-((R)-(3,4-dichlorophenyl)(hydroxy)methyl)-3,4-dihydroxytetrahydrofuran-2-yl)-1,4a,7,7a-tetrahydro-4H-pyrrolo[2,3-d]pyrimidin-4-one 0-(2,2,2-trifluoroethyl) oxime] | 0.0579 µM | 0.0296 µM | 0.062 µM | – |
| CO/N=c1/nc[nH]c2c1ccn2[C@@H]1O[C@H]([C@H](O)c2ccc(Cl)c(F)c2)[C@@H](O)[C@H]1O [compound 62, 7-((2R,3R,4S,5R)-5-((R)-(4-chloro-3-fluorophenyl)(hydroxy)methyl)-3,4-dihydroxytetrahydrofuran-2-yl)-1,7-dihydro-4H-pyrrolo[2,3-d]pyrimidin-4-one O-methyl oxime] | 0.045 µM | 0.0086 µM | 0.063 µM | – |
| CCO/N=c1/nc[nH]c2c1ccn2[C@@H]1O[C@H]([C@](C)(O)c2ccc(Cl)c(Cl)c2)[C@@H](O)[C@H]1O [Example 99, 7-((2R,3R,4S,5S)-5-((R)-1-(3,4-dichlorophenyl)-1-hydroxyethyl)-3,4-dihydroxytetrahydrofuran-2-yl)-1,7-dihydro-4H-pyrrolo[2,3-d]pyrimidin-4-one O-ethyl oxime] | 0.0084 µM | 0.0024 µM | 0.094 µM | – |
| CO/N=c1\[nH]cnc2c1ncn2[C@@H]1O[C@H]([C@](C)(O)c2ccc(Cl)c(Cl)c2)[C@@H](O)[C@H]1O [Example 92A, (2S,3S,4R,5R)-2-[(1R)-1-(3,4-dichlorophenyl)-1-hydroxy-ethyl]-5-[(6Z)-6-methoxyimino-1H-purin-9-yl]tetrahydrofuran-3,4-diol] | – | – | – | solubility at 4 h (physchem; 25 °C, fassif, thermodynamic from solid): 54.7 µg/mL (≈ 120 µM) |
| CO/N=c1\nc[nH]c2c1ccn2[C@@H]1O[C@H]([C@](C)(O)c2ccc(Cl)c(Cl)c2)[C@@H](O)[C@H]1O [compound 61, 7-((2R,3R,4S,5S)-5-((R)-1-(3,4-dichlorophenyl)-1-hydroxyethyl)-3,4-dihydroxytetrahydrofuran-2-yl)-1,7-dihydro-4H-pyrrolo[2,3-d]pyrimidin-4-one O-methyl oxime] | 0.033 µM | 0.0026 µM | 0.047 µM | – |
| CC(=O)CC(c1ccccc1)c1c(O)c2ccccc2oc1=O (stereo not shown) [Warfarin, reference compound] | – | – | – | FaSSIF solubility of positive controls (physchem; positive controls in this experiment): 10 to 25 µg/mL |
| C[C@@](O)(c1ccc(Cl)c(Cl)c1)[C@H]1C[C@@H](n2ccc3/c(=N\O)nc[nH]c32)[C@H](O)[C@@H]1O [Example 94-B, 7-((1R,2S,3R,4S)-4-((S)-1-(3,4-dichlorophenyl)-1-hydroxyethyl)-2,3-dihydroxycyclopentyl)-1,7-dihydro-4H-pyrrolo[2,3-d]pyrimidin-4-one oxime] | – | – | – | IC50 (PRMT5/MEP50 complex; [3]): 0.0034 µM; IC50 [1, 4]: 0.053 µM |
| CO/N=c1\nc[nH]c2c1ccn2[C@@H]1O[C@H]([C@H](O)c2ccc(Cl)c(Cl)c2)[C@@H](O)[C@H]1O [compound 69, 7-((2R,3R,4S,5R)-5-((R)-(3,4-dichlorophenyl)(hydroxy)methyl)-3,4-dihydroxytetrahydrofuran-2-yl)-1,7-dihydro-4H-pyrrolo[2,3-d]pyrimidin-4-one O-methyl oxime hydrochloride] | 0.028 µM | 0.0018 µM | 0.032 µM | – |

Now from value to compound, other results behind:

| IC50 ([1]; 72 h, Granta-519 cell line) | IC50 (PRMT5/MEP50 complex; [5]) | SMILES | IC50 (Granta-519 cells; [2]) | further results |
| --- | --- | --- | --- | --- |
| 120 µM | 0.0006 µM | N/N=c1/nc[nH]c2c1ccn2[C@@H]1O[C@H]([C@H](O)c2ccc(Cl)cc2)[C@@H](O)[C@H]1O [compound 20, 7-[(2R,3R,4S,5R)-5-[(R)-(4-chlorophenyl)-hydroxy-methyl]-3,4-dihydroxy-tetrahydrofuran-2-yl]-1H-pyrrolo[2,3-d]pyrimidin-4-one hydrazone] | 0.098 µM | – |
| 0.048 µM | 0.0102 µM | CO/N=c1\nc[nH]c2c1ccn2[C@@H]1O[C@H]([C@H](O)c2ccc(F)c(F)c2)[C@@H](O)[C@H]1O [compound 70, 7-((2R,3R,4S,5R)-5-((R)-(3,4-difluorophenyl)(hydroxy)methyl)-3,4-dihydroxytetrahydrofuran-2-yl)-1,7-dihydro-4H-pyrrolo[2,3-d]pyrimidin-4-one O-methyl oxime] | 0.13 µM | – |
| 0.008 µM | 0.0024 µM | O/N=c1/nc[nH]c2c1ccn2[C@@H]1O[C@H]([C@H](O)c2ccc(Cl)cc2)[C@@H](O)[C@H]1O [compound 37, 7-[(2R,3R,4S,5R)-5-[(R)-(4-chlorophenyl)-hydroxy-methyl]-3,4-dihydroxy-tetrahydrofuran-2-yl]-1H-pyrrolo[2,3-d]pyrimidin-4-one oxime hydrochloride] | 0.022 µM | – |
